Reference: US10829452B2, “Histone methyltransferase inhibitors” (GLOBAL BLOOD THERAPEUTICS, INC., priority 2016, dated 2020)
Where a name gives a salt, the structure may show the parent alone.

What follows are compounds tested against T1, G9a (Homo sapiens, UniProt Q96KQ7) (assay: G9a AlphaLISA enzymatic activity assay). Settings: 0.15 nM G9a, 15 uM S-adenosyl-methionine, 100 nM biotinylated histone 3 peptide (1-21), 1 hour at room temperature; read-out: G9a in (uM) (IC50, concentration that produced 50% inhibition).
T1 sequence (Q96KQ7 1-1210): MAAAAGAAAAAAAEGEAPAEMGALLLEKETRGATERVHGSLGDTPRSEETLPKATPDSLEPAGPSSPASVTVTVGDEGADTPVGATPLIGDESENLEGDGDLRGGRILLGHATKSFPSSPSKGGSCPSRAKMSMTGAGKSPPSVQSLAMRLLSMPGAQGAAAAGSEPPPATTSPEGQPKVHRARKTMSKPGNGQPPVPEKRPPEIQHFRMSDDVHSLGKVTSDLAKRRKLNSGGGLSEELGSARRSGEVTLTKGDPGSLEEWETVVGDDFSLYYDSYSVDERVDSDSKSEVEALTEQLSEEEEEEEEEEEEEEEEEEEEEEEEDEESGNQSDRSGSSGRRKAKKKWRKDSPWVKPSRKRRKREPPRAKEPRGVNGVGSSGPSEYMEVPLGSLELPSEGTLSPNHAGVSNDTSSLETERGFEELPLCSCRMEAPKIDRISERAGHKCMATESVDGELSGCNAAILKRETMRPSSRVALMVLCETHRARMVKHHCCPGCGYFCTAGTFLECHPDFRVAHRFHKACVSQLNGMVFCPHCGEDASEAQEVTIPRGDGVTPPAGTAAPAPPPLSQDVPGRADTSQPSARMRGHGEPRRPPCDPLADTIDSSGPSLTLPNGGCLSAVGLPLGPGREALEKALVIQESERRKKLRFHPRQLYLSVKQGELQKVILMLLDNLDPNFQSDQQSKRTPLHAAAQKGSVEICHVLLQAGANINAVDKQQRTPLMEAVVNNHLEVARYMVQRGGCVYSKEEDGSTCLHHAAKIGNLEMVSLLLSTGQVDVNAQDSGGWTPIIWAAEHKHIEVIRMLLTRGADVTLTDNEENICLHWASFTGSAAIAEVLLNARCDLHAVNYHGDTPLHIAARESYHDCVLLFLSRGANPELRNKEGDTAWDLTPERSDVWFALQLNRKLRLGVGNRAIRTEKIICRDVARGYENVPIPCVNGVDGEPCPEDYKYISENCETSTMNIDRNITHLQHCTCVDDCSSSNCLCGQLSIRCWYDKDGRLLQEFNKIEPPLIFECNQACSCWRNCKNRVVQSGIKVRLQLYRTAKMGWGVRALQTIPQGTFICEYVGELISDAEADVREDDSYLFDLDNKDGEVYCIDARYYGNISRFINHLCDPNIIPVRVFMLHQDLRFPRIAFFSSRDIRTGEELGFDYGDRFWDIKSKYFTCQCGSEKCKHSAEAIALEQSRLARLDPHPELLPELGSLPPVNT
Type: biochemical
Excerpt: The G9a AlphaLISA assay was used to detect the methyl modifications of a biotinylated histone H3 peptide by the compounds. These modifications are done by the histone methyl transferase activity of the G9a enzyme. The assay consists of reading a chemiluminescent signal at 615 nm; this signal is generated by a laser excitation at 680 nm that transfers a reactive singlet oxygen between the donor beads and acceptor beads. Donor beads are streptavidin conjugated and bind to the biotin on the peptide. Acceptor beads are conjugated with an antibody that recognizes the specific G9a methyl mark on the peptide. If there is a methyl mark on the peptide, the acceptor beads will bind to the peptide. Upon binding, the acceptor beads will be in close proximity (<200 nm) of the donor beads and when the donor beads are excited, the transfer of the oxygen can occur and a strong signal will be generated. If there is no methyl mark, the interaction between beads will not occur and signal will be at background levels.
For the assay, the following buffer was used to set up reactions: 50 mM Tris-HCl pH9, 50 mM NaCl, 0.01% Tween-20 and 1 mM DTT (added fresh prior to starting the reactions). The assay is set up by adding a final concentration of 0.15 nM G9a, 15 uM S-adenosyl-methionine and, 100 nM biotinylated histone 3 peptide (1-21). The reaction is incubated at room temperature for 1 hour, and subsequently quenched by the addition of the acceptor beads (anti-H3k9me2 AlphaLISA acceptor beads, PerkinElmer # AL117) at a final concentration of 20 ug/mL. The acceptor beads are incubated for 1 hour. After 1 hour, the donor beads are added at a final concentration of 20 ug/mL (Alpha Streptavidin donor beads, PerkinElmer #6760002). Donor beads are incubated for 0.5 hours. Both donor and acceptor beads are resuspended in AlphaLISA 5X Epigenetics Buffer 1 Kit (PerkinElmer # AL008) prior to addition to the reaction. All manipulations and incubations with the donor and acceptor beads are done in subdued light. Signal is detected in an EnVision plate reader in Alpha mode (see ACS Med Chem Lett. 2014 Jan. 2; 5(2):205-9. doi: 10.1021/m1400496h. eCollection 2014. Discovery and development of potent and selective inhibitors of histone methyltransferase g9a.)
Percent inhibition was calculated for each compound dilution and the concentration that produced 50% inhibition was calculated. This value is presented as the IC50.

SMILES | IC50 [µM]
CCCNc1nc2cc(OCCCN3CCCC3)c(OC)cc2c2c1CCC2 [Example 104, 8-methoxy-N-propyl-7-[3-(pyrrolidin-1-yl)propoxy]-1H,2H,3H-cyclopenta[c]quinolin-4-amine trifluoroacetate] | 0.02
COc1cc2c3c(c(NCC(C)C)nc2cc1OCCCN1CCCC1)CC(C)(C)C3 [Example 95, N-isobutyl-8-methoxy-2,2-dimethyl-7-(3-(pyrrolidin-1-yl)propoxy)-2,3-dihydro-1H-cyclopenta[c]quinolin-4-amine formate] | 0.07
COc1cc2c3c(c(NC(C)C)nc2cc1OCCCN1CCCC1)CC(C)(C)N3 [Example 25, 8-methoxy-2,2-dimethyl-N-(propan-2-yl)-7-[3-(pyrrolidin-1-yl)propoxy]-1H,2H,3H-pyrrolo[3,2-c]quinolin-4-amine trifluoroacetate] | 0.005
COc1cc2c3c(c(N[C@H]4CC[C@H](O)CC4)nc2cc1OCCCN1CCCC1)CCC3 [Example 123, (1R,4R)-4-({8-methoxy-7-[3-(pyrrolidin-1-yl)propoxy]-1H,2H,3H-cyclopenta[c]quinolin-4-yl}amino)cyclohexan-1-ol formate] | 0.17
COc1cc2c3c(c(N[C@H](C)C4CC4)nc2cc1OCCCN1CCCC1)CCC3 [Example 89, N-[(1R)-1-cyclopropylethyl]-8-methoxy-7-[3-(pyrrolidin-1-yl)propoxy]-1H,2H,3H-cyclopenta[c]quinolin-4-amine formate] | 0.14
COc1cc2c3c(c(N[C@H]4CCOC4)nc2cc1OCCCN1CCCC1)CCC3 [Example 18, 8-methoxy-N-[(3S)-oxolan-3-yl]-7-[3-(pyrrolidin-1-yl)propoxy]-1H,2H,3H-cyclopenta[c]quinolin-4-amine formate] | 0.11
CCNc1nc2cc(OCCCN3CCCC3)c(OC)cc2c2c1COC2 [Example 60, N-ethyl-8-methoxy-7-[3-(pyrrolidin-1-yl)propoxy]-1H,3H-furo[3,4-c]quinolin-4-amine formate] | 0.21
CCNc1nc2cc(OCCCN3CCCC3)c(OC)cc2c2c1CCC2 [Example 106, N-ethyl-8-methoxy-7-[3-(pyrrolidin-1-yl)propoxy]-1H,2H,3H-cyclopenta[c]quinolin-4-amine trifluoroacetate] | 0.013
COc1cc2c3c(c(NC(C)C)nc2cc1OCCCN1CCCC1)CCCCN3 [Example 34, 10-methoxy-N-(propan-2-yl)-9-[3-(pyrrolidin-1-yl)propoxy]-1H,2H,3H,4H,5H-azepino[3,2-c]quinolin-6-amine formate] | 0.01
COc1cc2c3c(cnc2cc1OCCCN1CCCC1)CCC(C)(C)N3 [Example 75, 1-[3-({9-methoxy-2,2-dimethyl-1H,2H,3H,4H-benzo[h]1,6-naphthyridin-8-yl}oxy)propyl]pyrrolidine formate] | 0.014
COc1cc2c3c(c(O)nc2cc1OCCCN1CCCC1)CCC3 [Example 37, 8-methoxy-7-[3-(pyrrolidin-1-yl)propoxy]-1H,2H,3H-cyclopenta[c]quinolin-4-ol trifluoroacetate] | 1.3
COc1cc2c3c(c(NC4CCN(C(C)C)CC4)nc2cc1OCCCN1CCCC1)CCC3 [Example 43, N-{8-methoxy-7-[3-(pyrrolidin-1-yl)propoxy]-1H,2H,3H-cyclopenta[c]quinolin-4-yl}-1-(propan-2-yl)piperidin-4-amine formate] | 1.7
COc1cc2c3c(c(NC(C)C)nc2cc1OCCCN1CCCC1)CCCC3 [Example 13, 2-methoxy-N-(propan-2-yl)-3-[3-(pyrrolidin-1-yl)propoxy]-7,8,9,10-tetrahydrophenanthridin-6-amine formate] | 0.042

Other lines, results leading:

IC50 [µM] | SMILES
0.016 | COc1cc2c3c(c(NC4CCCCC4)nc2cc1OCCCN1CCCC1)CCC3 [Example 107, N-cyclohexyl-8-methoxy-7-[3-(pyrrolidin-1-yl)propoxy]-1H,2H,3H-cyclopenta[c]quinolin-4-amine trifluoroacetate]
0.46 | COc1cc2c(cc1OCCCN1CCCC1)nc(O)n1nccc21 [Example 56, 9-methoxy-8-[3-(pyrrolidin-1-yl)propoxy]pyrazolo[1,5-c]quinazolin-5-ol formate]
0.009 | COc1cc2c3c(c(C4=CCCC4)nc2cc1OCCCN1CCCC1)CC(C)(C)N3 [Example 83, 1-(3-{[4-(cyclopent-1-en-1-yl)-8-methoxy-2,2-dimethyl-1H,2H,3H-pyrrolo[3,2-c]quinolin-7-yl]oxy}propyl)pyrrolidine]
0.008 | COc1cc2c3c(c(NC(C)C)nc2cc1OCCCN1CCCC1)CCC(C)N3 (stereo not drawn) [Example 30, 9-methoxy-2-methyl-N-(propan-2-yl)-8-[3-(pyrrolidin-1-yl)propoxy]-1H,2H,3H,4H-benzo[h]1,6-naphthyridin-5-amine formate]
0.003 | COc1cc2c3c(c(C)nc2cc1OCCCN1CCCC1)CCC(C)(C)N3 [Example 78, 1-[3-({9-methoxy-2,2,5-trimethyl-1H,2H,3H,4H-benzo[h]1,6-naphthyridin-8-yl}oxy)propyl]pyrrolidine]
> 10 | COc1cc2c3c(c(NC(C)C)nc2cc1OCCCN1CCOCC1)CCC3 [Example 112, 8-methoxy-7-[3-(morpholin-4-yl)propoxy]-N-(propan-2-yl)-1H,2H,3H-cyclopenta[c]quinolin-4-amine trifluoroacetate]
1.1 | COc1cc2c3c(c(NC(C)C)nc2cc1OCCCN1CCCC1)CN(C)CC3 [Example 71, 9-methoxy-3-methyl-N-(propan-2-yl)-8-[3-(pyrrolidin-1-yl)propoxy]-1H,2H,3H,4H-benzo[c]2,7-naphthyridin-5-amine formate]
0.15 | COc1cc2c3c(c(NC4CCC(O)C4)nc2cc1OCCCN1CCCC1)CCC3 (stereo not drawn) [Example 126, 3-({8-methoxy-7-[3-(pyrrolidin-1-yl)propoxy]-1H,2H,3H-cyclopenta[c]quinolin-4-yl}amino)cyclopentan-1-ol formate]
0.004 | CNc1nc2cc(OCCCN3CCCC3)c(OC)cc2c2c1CCCN2 [Example 26, 9-methoxy-N-methyl-8-[3-(pyrrolidin-1-yl)propoxy]-1H,2H,3H,4H-benzo[h]1,6-naphthyridin-5-amine formate]
0.36 | COc1ccc(CNc2nc3cc(OCCCN4CCCC4)c(OC)cc3c3c2CC(C)(C)C3)c(OC)c1 [Example 117, N-[(2,4-dimethoxyphenyl)methyl]-8-methoxy-2,2-dimethyl-7-[3-(pyrrolidin-1-yl)propoxy]-1H,2H,3H-cyclopenta[c]quinolin-4-amine formate]
0.21 | CNc1nc2cc(OCCCN3CCCC3)c(OC)cc2c2c1COCC2 [Example 57, 9-methoxy-N-methyl-8-[3-(pyrrolidin-1-yl)propoxy]-1H,2H,4H-pyrano[3,4-c]quinolin-5-amine formate]
